Test results published in patent US8062678B2, “Extractive of Piper laetispicum C.DC., its process and its uses” (priority 2004, dated 2011).

Tests used:
[1] = system: rat brain synaptosome (re)uptake of noradrenaline (3H-NA); assay: Inhibition of brain synaptosome uptake of noradrenaline; format: biochemical; conditions: positive control drug 0.1 mM; 3H-NA 300 nM, 37° C.; lower CPM = more inhibition
Protocol: 10 μl of substrate (^3H-5HT, ^3H-NA or ^3H-DA; final reaction concentration: 300 nM) is added in a 4° C. environment and is thoroughly mixed, and the tubes are placed in a 37° C. water bath for a warm bath for 5 minutes. After that, precooled Tris-Krebs buffer is added into each tube to terminate reaction, and the multichannel cell harvestor is immediately used for sucking filtration through fiberglass filter membrane, and the same solution in the same volume is used to wash tubes and filter. The filter membrane is removed and oven dried. The filter membrane is placed in the scintillation vial, methylbenzene scintillation fluid is added, and counting is performed with the β-liquid scintillation counter.

mouse [2] = assay: Mouse swimming test; format: in vivo; conditions: 30 mg/kg/d intragastric, 14 days, within 4 minutes, x ± s, n = 10
Protocol: The despair test as put forth by Porsolt et al can serve as the evaluation model for the effects of antidepressant drugs. In this model, a mouse or a rat is placed in a limited and inescapable space for swimming, and the animal can be induced to have motionless status. Such status is a reflection of the animal's despair, and the status can be inhibited by some effective antidepressant drugs.
One (1) hour after the drug is administered on Day 14, the animal is placed into a 10×20 cm glass cylinder with water depth at 8˜10 cm and water temperature at 22˜24° C. Beginning from the 2nd minute, the accumulated time of motionless status within 4 minutes is recorded, and the results are as shown in Table 7.

MAO-B in mouse brain = target: T1, MAO-B in mouse brain (Mus musculus, UniProt Q8BW75); assay: Inhibition of monoamine oxidase B in the brains of mice; format: in vivo; conditions: 25 mg/kg; mouse brain after 14 days; x ± SD, n = 10
T1 construct: from tissue; host or cells: mouse brain
T1 sequence (Q8BW75 1-520): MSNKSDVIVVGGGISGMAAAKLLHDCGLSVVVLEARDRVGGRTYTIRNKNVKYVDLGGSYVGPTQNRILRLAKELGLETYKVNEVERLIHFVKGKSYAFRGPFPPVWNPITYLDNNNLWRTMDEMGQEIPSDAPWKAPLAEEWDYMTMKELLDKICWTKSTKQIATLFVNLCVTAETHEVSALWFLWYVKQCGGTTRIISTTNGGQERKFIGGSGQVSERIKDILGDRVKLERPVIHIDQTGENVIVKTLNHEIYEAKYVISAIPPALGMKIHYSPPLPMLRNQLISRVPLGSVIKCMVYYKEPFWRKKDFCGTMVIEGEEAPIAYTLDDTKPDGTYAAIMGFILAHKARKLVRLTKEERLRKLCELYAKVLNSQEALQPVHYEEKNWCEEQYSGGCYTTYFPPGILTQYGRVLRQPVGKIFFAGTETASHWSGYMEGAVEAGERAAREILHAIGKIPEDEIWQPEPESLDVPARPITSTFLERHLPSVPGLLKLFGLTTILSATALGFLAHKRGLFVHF
Description: (§1) The biological function of monoamine oxidase (MAO) lies in its adjustment of the level for in vivo endogenous amines (noradrenaline, dopamine and 5-hydroxytryptamine) and exogenous amine substances. Based on its substrate and its inhibitor specificity, monoamine oxidase can be divided into two types (MAO-A and MAO-B). Dopamine and tyramine are two MAO substrates, 5-HT and noradrenaline are Type A substrates, while β-phenethylamine and benzylamine are Type B substrates, and iprazid and tranylcypromine are nonselective inhibitors for MAO.
(§2) The mice are randomized into groups, and based on Table 6, intragastric administration of the corresponding doses of test Drug A (Sample 1-1 in Case of Implementation 1) is performed for each of the groups, which are administered once a day consecutively for 14 days, and normal saline is used as a control at the same time, and the positive control is paxil. One (1) hour after the last administration, the animals are put to death through neck dislocation, and the brain is immediately taken for testing MAO activity.

[3] = system: rat brain synaptosome (re)uptake of dopamine (3H-DA); assay: Inhibition of brain synaptosome uptake of dopamine; format: biochemical; conditions: positive control drug 1 mM; 3H-DA 300 nM, 37° C.; lower CPM = more inhibition
Description: The physiological mechanism for the […] and dopaminergic functions is similar to that for 5-hydroxytryptamine. Clinically, there are many antidepressant drugs that can block the reuptake of noradrenaline and/or 5-hydroxytryptamine and/or dopamine.
First of all, the method of Whittaker et al (Whittaker V P & Barker L A. The subcellular tractionation of brain tissue with special reference to the preparation of synaptosomes and their component organelles. In: Fried R. ed. In Methods in Neurochemistry, Vol. New York: Marcel Dakker, Inc, 1972) is referred to for preparing brain synaptosome, and the specific procedures are: decapitate the rat and take out the cerebrum quickly, place it in precooled normal saline, and remove cerebral pia mater and vascular tissues. Take cerebral cortex, and place it in cold sugar solution. Use ultrasonic cell disruptor for producing homogenate and centrifuging to obtain refined brain synaptosome for future use. […]

MAO-A in mouse brain = target: T2, MAO-A in mouse brain (Mus musculus, UniProt Q64133); assay: Inhibition of monoamine oxidase A in the brains of mice; format: in vivo; conditions: 25 mg/kg; mouse brain after 14 days; x ± SD, n = 10
T2 construct: from tissue; host or cells: mouse brain
T2 sequence (Q64133 1-526): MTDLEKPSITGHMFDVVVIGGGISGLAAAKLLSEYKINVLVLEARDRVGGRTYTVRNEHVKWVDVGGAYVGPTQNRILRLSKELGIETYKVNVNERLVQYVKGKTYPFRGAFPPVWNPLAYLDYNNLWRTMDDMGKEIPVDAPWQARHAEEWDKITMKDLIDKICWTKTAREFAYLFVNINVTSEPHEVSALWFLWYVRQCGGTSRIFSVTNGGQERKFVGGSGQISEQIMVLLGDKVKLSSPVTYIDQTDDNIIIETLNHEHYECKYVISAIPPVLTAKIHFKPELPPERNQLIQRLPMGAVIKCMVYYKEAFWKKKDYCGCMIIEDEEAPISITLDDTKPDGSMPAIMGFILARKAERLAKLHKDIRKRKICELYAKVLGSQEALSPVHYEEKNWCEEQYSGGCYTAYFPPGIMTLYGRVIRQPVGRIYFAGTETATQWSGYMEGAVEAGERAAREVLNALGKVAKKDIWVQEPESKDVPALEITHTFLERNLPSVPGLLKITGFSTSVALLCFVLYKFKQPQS
Description: as §1, §2

rat = assay: Rat swimming test; format: in vivo; conditions: 30 mg/kg/d intragastric, 14 days, 5 minutes swimming, x ± s, n = 10
Protocol: After having fasted for 4 hours, the rats are placed in a 40×18 cm glass cylinder with water depth at 15 cm (water temperature at 25° C.) for swimming for 15 minutes, and are dried with a hot blower. Then, based on Table 8, the rats are randomized into 6 groups, and each of the groups receives intragastric administration of the corresponding dose of Drug A (Sample 1-1 in Case of Implementation 1) and B (Sample 10 in Case of Implementation 1), which is administered once a day consecutively for 14 days, and normal saline is used as control at the same time, and positive control is Venlafaxine. One (1) hour after the drug is administered for the last time, the rat swimming test begins, the swimming time is 5 minutes, and the motionless time during the 5 minutes for which they are swimming is recorded, and the results are as shown in Table 8.

mouse [4] = assay: Mouse tail suspension test; format: in vivo; conditions: 50 mg/kg/d intragastric, 14 days, within 6 minutes, x ± s, n = 10
Description: The tail suspension test is a simple and easy experimental method introduced by Stern et al in 1985 for evaluation of antidepressant drugs. […] Clinically effective antidepressant drugs can reduce the motionless time of the mouse after it cannot successfully escape through its efforts following being suspended at the tail.
The mice are randomized into groups, and each of the groups receives intragastric administration of the corresponding dose of Drag A (Sample 1-1 in Case of Implementation 1), B (Sample 10 in Case of Implementation 1), C (Sample 7 in Case of Implementation 1), D (Sample 3 in Case of Implementation 1) and E (Sample 5 in Case of Implementation 1), which is administered once a day consecutively for 14 days, and normal saline is used as control at the same time, and positive control is Venlafaxine. One (1) hour after the drug is administered for the last time, the mouse tail suspension test is performed, the duration is 6 minutes, and the stationary and motionless time within the 6 minutes is recorded, and the results are as shown in Table 9.

mouse [5] = assay: Analgesic effect, writhing test; format: in vivo; conditions: 50 mg/kg; benzoquinone i.p. 30 minutes after drug; within 10 minutes; x ± s, n = 10
Protocol: A chemical stimulant with definite solvents and at a definite concentration is injected into the abdominal cavity of the mouse to stimulate splanchnoderm and peritoneum parietale so as to cause deep, large-area and long-time inflammatory pain and result in behavioral reactions in the mouse such as concaving the abdomen, extending the trunk and back limbs and raising the buttocks, which are called the writhing response. […]
The mice are randomized into groups, and are respectively given test drugs based on Table 12, namely Drug A (Sample 1-1 in Case of Implementation 1), C (Sample 7 in Case of Implementation 1) and B (Sample 10 in Case of Implementation 1), and normal saline is used as control at the same time, and positive control group is acetyl salicylic acid. The mice are respectively injected intraperitoneally with 0.20 ml of 0.02% benzoquinone water solution 30 minutes later, and are immediately placed into a box with four sides sealed, and, beginning from the first occurrence of writhing responses in the mice, time is kept for 10 minutes, and the number of writhing responses in the mice is recorded within 10 minutes thereafter, and the results are as shown in Table 12.

mouse [6] = assay: Anti-anxiety effect, mouse four board test; format: in vivo; conditions: 1 mg/kg/d; 30 minutes after drug; within 10 minutes; x ± s, n = 8
Protocol: The mice are randomized into groups, and are respectively given test drugs based on Table 10, namely Drug A (Sample 1-1 in Case of Implementation 1), B (Sample 10 in Case of Implementation 1), C (Sample 7 in Case of Implementation 1), F (Sample 9 in Case of Implementation 1) and G (Sample 11 in Case of Implementation 1), and normal saline is used as control, and positive control group is diazepam. The mouse is placed on the boards 30 minutes after the drug is administered, and is made to explore for 15 seconds. After that, whenever the mouse moves from one board to another board, one electric shock is given with amperage at 0.35 mA and duration time at 0.5 s. The mouse should present an obvious escape response because of this, and usually moves across 2 boards or 3 boards, if the mouse continues to run, no electric shock is given for […] thereafter.

## CNCCCN1c2ccccc2CCc2ccccc21 [Desipramine]
[1]
  Inhibition of Monoamine Uptake (CPM) Noradrenaline: 1499 CPM

## CNCCC(Oc1ccc(C(F)(F)F)cc1)c1ccccc1 (stereo not drawn) [Fluoxetine]
Mouse [2]
  Accumulated Motionless Time: 73.7 ± 17.2 s

## Fc1ccc([C@@H]2CCNC[C@H]2COc2ccc3c(c2)OCO3)cc1 [Paxil]
MAO-B in mouse brain
  MAO-B (OD): 0.025 ± 0.008 OD
[3]
  Inhibition of Monoamine Uptake (CPM) Dopamine: 1197 CPM
MAO-A in mouse brain
  MAO-A (OD): 0.012 ± 0.005 OD

## COc1ccc(C(CN(C)C)C2(O)CCCCC2)cc1 (stereo not drawn) [Venlafaxine]
rat
  Accumulated Motionless Time: 211.2 ± 24.7 s
Mouse [4]
  Accumulated Motionless Time: 57.5 ± 43.0 s

## CC(=O)Oc1ccccc1C(=O)O [acetyl salicylic acid]
Mouse [5]
  Accumulated Number of Writhing Responses: 9.89 ± 1.09

## CN1C(=O)CN=C(c2ccccc2)c2cc(Cl)ccc21 [diazepam]
Mouse [6]
  Accumulated Number of Electric Shocks: 12.78 ± 2.05
